Values quoted from earlier work in paper PMC4460250, “Systems Pharmacology Dissecting Holistic Medicine for Treatment of Complex Diseases: An Example Using Cardiocerebrovascular Diseases Treated by TCM” (Evidence-based Complementary and Alternative Medicine : eCAM, 2015).

Details: in vivo; cited from earlier work

SMILES | HIA(Human Intestinal Absorption)
NC[C@H]1CC[C@H](C(=O)O)CC1 [Tranexamic_acid] | 0.55
CCC1(c2ccccc2)C(=O)NC(=O)NC1=O [Phenobarbital] | 1
CCCN(CCC)S(=O)(=O)c1ccc(C(=O)O)cc1 [Probenecid] | 1
CN(C)CCC(c1ccc(Cl)cc1)c1ccccn1 (stereo not shown) [Chlorpheniramine] | 0.8
CCOC(=O)c1ncn2c1CN(C)C(=O)c1cc(F)ccc1-2 [Flumazenil] | 0.95
CN1CCC(=C2c3ccccc3CCc3cccnc32)CC1 [Azatadine] | 0.9
C[C@@H](O)[C@H]1C(=O)N2C(C(=O)O)=C(SCCN=CN)C[C@H]12 [Imipenem] | 0.05
CC/C(=C(/CC)c1ccc(O)cc1)c1ccc(O)cc1 [Diethylstilbestrol] | 0.9
C#C[C@]1(O)CC[C@H]2[C@@H]3CCc4cc(O)ccc4[C@H]3CC[C@@]21C [Ethynylestradiol] | 1
O=C1OC2(c3ccc(O)cc3Oc3cc(O)ccc32)c2ccccc21 [Fluorescein] | 0.99
CC(C(=O)O)c1ccc(N2Cc3ccccc3C2=O)cc1 (stereo not shown) [Indoprofen] | 1
CN1CCN(CCCCN2C(=O)CN(/N=C/c3ccc(-c4ccc(Cl)cc4)o3)C2=O)CC1 [Azimilide] | 1
Cc1cc(NC(=O)C2=C(O)c3ccccc3S(=O)(=O)N2C)no1 [Isoxicam] | 1
CC[C@H]1OC(=O)[C@H](C)C(=O)[C@H](C)[C@@H](O[C@@H]2O[C@H](C)C[C@H](N(C)C)[C@H]2O)[C@](C)(OC)C[C@@H](C)C(=O)[C@H](C)[C@H]2N(CCCCn3cnc(-c4cccnc4)c3)C(=O)O[C@]12C [Telithromycin] | 0.9
CC1=C(/C=C/C(C)=C/C=C/C(C)=C/CO)C(C)(C)CCC1 [Vitamin_A] | 0.8
CC(NCCc1ccc(O)cc1)C(O)c1ccc(O)cc1 (stereo not shown) [Ritodrine] | 0.95
Cc1cccc(Nc2ccccc2C(=O)O)c1C [Mefenamic_acid] | 0.9
C#C[C@]1(O)C=C[C@H]2[C@@H]3CCC4=CC(=O)CC[C@@H]4[C@H]3CC[C@@]21CC [Gestodene] | 1
CN(C)CCOc1ccc(/C(=C(/CCCl)c2ccccc2)c2ccccc2)cc1 [Toremifene] | 1
CC(C[N+](C)(C)C)OC(N)=O (stereo not shown) [Bethanechol] | 0.05
NC(=O)c1cnccn1 [Pyrazinamide] | 1
CN1C(C(=O)Nc2ccccn2)=C(O)c2ccccc2S1(=O)=O [Piroxicam] | 1
CO/N=C(\C(=O)N[C@@H]1C(=O)N2C(C(=O)O)=C(CSc3nc(=O)c(=O)[nH]n3C)CS[C@H]12)c1csc(N)n1 [Ceftriaxone] | 1
CO/N=C(\C(=O)N[C@@H]1C(=O)N2C(C(=O)O)=CCS[C@H]12)c1csc(N)n1 [Ceftizoxime] | 0.72
CC(C)(C)NC[C@H](O)COc1cccc2c1CCCC2=O [Levobunolol] | 1
CC(C)(C)NC(=O)[C@H]1CC[C@H]2[C@@H]3CC[C@H]4NC(=O)C=C[C@]4(C)[C@H]3CC[C@]12C [Finasteride] | 1
O=C(NCCN1CCOCC1)c1ccc(Cl)cc1 [Moclobemide] | 0.88

SMILES | HIA(Human Intestinal Absorption)
CN1C2CCCC1CC(NC(=O)c1nn(C)c3ccccc13)C2 (stereo not shown) [Granisetron] | 1
C[C@H]1C[C@@H]2[C@H]([C@@H](O)C[C@@]3(C)[C@H]2CC[C@]3(O)C(=O)CO)[C@@]2(C)C=CC(=O)C=C12 [Methylprednisolone] | 0.82
CC[C@@H](CO)NC(=O)[C@@H]1C=C2c3cccc4[nH]cc(c34)C[C@H]2N(C)C1 [Methylergonovine] | 1
O=C(O)c1ccccc1C(=O)Nc1ccc(S(=O)(=O)Nc2nccs2)cc1 [Phthalylsulfathiazole] | 0.05
COc1ccccc1N1CCN(CCCNc2cc(=O)n(C)c(=O)n2C)CC1 [Urapidil] | 0.78
O=C(O)Cc1ccc2c(c1)C(=O)c1ccccc1CO2 [Isoxepac] | 0.98
CO/N=C(\C(=O)N[C@@H]1C(=O)N2C(C(=O)O)=C(COC(N)=O)CS[C@H]12)c1ccco1 [Cefuroxime] | 1
CC(C)N(CCC(C(N)=O)(c1ccccc1)c1ccccn1)C(C)C (stereo not shown) [Disopyramide] | 0.95
NS(=O)(=O)c1cc(C(=O)O)cc(N2CCCC2)c1Oc1ccccc1 [Piretanide] | 0.85
CSc1ccc(C(=O)c2[nH]c(=O)[nH]c2C)cc1 [Enoximone] | 0.8
CCOC(=O)[C@H](CCc1ccccc1)N[C@H]1CCCN2CCC[C@@H](C(=O)O)N2C1=O [Cilazapril] | 0.59
OCCOCCN1CCN(C2=Nc3ccccc3Sc3ccccc32)CC1 [Quetiapine] | 0.73
CCCCCC(=O)O[C@]1(C(C)=O)CC[C@H]2[C@@H]3CCC4=CC(=O)CC[C@]4(C)[C@H]3CC[C@@]21C [Hydroxyprogesterone_caproate] | 0.9
NCC[C@H](O)C(=O)N[C@@H]1C[C@H](N)[C@@H](O[C@H]2O[C@H](CN)[C@@H](O)[C@H](O)[C@H]2O)[C@H](O)[C@H]1O[C@H]1O[C@H](CO)[C@@H](O)[C@H](N)[C@H]1O [Amikacin] | 0.01
Clc1cccc(Cl)c1N=C1NCCN1 [Clonidine] | 0.95
CC(C)C(=O)Nc1ccc([N+](=O)[O-])c(C(F)(F)F)c1 [Flutamide] | 0.9
Cc1cccc(C)c1NC(=O)NCCCNC(C)C [Recainam] | 0.71
CC(=O)OCC(CCn1cnc2cnc(N)nc21)COC(C)=O [Famciclovir] | 0.77
Cc1noc(NS(=O)(=O)c2ccc(N)cc2)c1C [Sulfisoxazole] | 0.95
c1ccc([C@H]2CN3CCSC3=N2)cc1 [Levamisole] | 0.95
NCC[C@H](O)C(=O)N[C@@H]1C[C@H](N)[C@@H](O[C@H]2O[C@H](CN)CC[C@H]2N)[C@H](O)[C@H]1O[C@H]1O[C@H](CO)[C@@H](O)[C@H](N)[C@H]1O [Arbekacin] | 0.01
CC(=O)N[C@H]1[C@H]([C@H](O)[C@H](O)CO)OC(C(=O)O)=C[C@@H]1N=C(N)N [Zanamivir] | 0.02
Cc1ccc(C(=O)c2ccc(CC(=O)O)n2C)cc1 [Tolmetin] | 0.99
CCCCC1=NC2(CCCC2)C(=O)N1Cc1ccc(-c2ccccc2-c2nnn[nH]2)cc1 [Irbesartan] | 1
C[N+](C)(CCOc1ccccc1)Cc1ccccc1 [Bephenium] | 0.05
C#C[C@]1(O)CC[C@H]2[C@@H]3[C@H](C)CC4=C(CCC(=O)C4)[C@H]3CC[C@@]21C [Tibolone] | 0.9
CN(C)CCCOc1nn(Cc2ccccc2)c2ccccc12 [Benzydamine] | 0.87

SMILES | HIA(Human Intestinal Absorption)
Cc1cc(NS(=O)(=O)c2ccc(N)cc2)nc(C)n1 [Sulfisomidine] | 0.9
CCc1oc2ccccc2c1C(=O)c1cc(Br)c(O)c(Br)c1 [Benzbromarone] | 0.73
O=C(O)P(=O)(O)O [Foscarnet] | 0.17
CNC(=C[N+](=O)[O-])NCCSCc1ccc(CN(C)C)o1 [Ranitidine] | 0.5
CNCCCC12CCC(c3ccccc31)c1ccccc12 [Maprotiline] | 0.98
COc1ccc2[nH]c([S+]([O-])Cc3ncc(C)c(OC)c3C)nc2c1 (stereo not shown) [Omeprazole] | 0.8
Cc1ccc(O)c([C@H](CCN(C(C)C)C(C)C)c2ccccc2)c1 [Tolterodine] | 0.77
NS(=O)(=O)Cc1noc2ccccc12 [Zonisamide] | 1
O=C(O)c1cc(-c2ccc(F)cc2F)ccc1O [Diflunisal] | 0.9
COc1cc([C@@H]2c3cc4c(cc3[C@@H](O[C@@H]3O[C@@H]5CO[C@@H](C)O[C@H]5[C@H](O)[C@H]3O)[C@H]3COC(=O)[C@H]23)OCO4)cc(OC)c1O [Etoposide] | 0.5
Cc1cnc(C(=O)O)c[n+]1[O-] [Acipimox] | 0.95
C[n+]1ccccc1/C=N/O [Pralidoxime] | 0.3
O=C1CC[C@@]2(O)[C@H]3Cc4ccc(O)c5c4[C@@]2(CCN3CC2CC2)[C@H]1O5 [Naltrexone] | 0.95
CN(C)CCCN1c2ccccc2CCc2ccccc21 [Imipramine] | 1
C[C@@H]1CN(c2c(F)c(N)c3c(=O)c(C(=O)O)cn(C4CC4)c3c2F)C[C@H](C)N1 [Sparfloxacin] | 0.9
CC(C)(C)NCC(O)COc1cccc2c1CC(O)C(O)C2 (stereo not shown) [Nadolol] | 0.57
CNCCC(Oc1ccc(C(F)(F)F)cc1)c1ccccc1 (stereo not shown) [Fluoxetine] | 0.8
CCc1cc(C(N)=S)ccn1 [Ethionamide] | 0.9
CC1(C)O[C@@H]2C[C@H]3[C@@H]4C[C@H](F)C5=CC(=O)C=C[C@]5(C)[C@H]4[C@@H](O)C[C@]3(C)[C@]2(C(=O)CO)O1 [Flunisolide] | 0.8
O=C(O)CCc1nc(-c2ccccc2)c(-c2ccccc2)o1 [Oxaprozin] | 0.98
Cc1cc(CC(=O)O)n(C)c1C(=O)c1ccc(Cl)cc1 [Zomepirac] | 1
COc1cc2nc(N3CCN(C(=O)c4ccco4)CC3)nc(N)c2cc1OC [Prazosin] | 0.86
CC(=O)Nc1c(I)c(NC(C)=O)c(I)c(C(=O)O)c1I [Diatrizoate] | 0.05
CC(C)(Oc1ccc(CCNC(=O)c2ccc(Cl)cc2)cc1)C(=O)O [Bezafibrate] | 1
C#C[C@]1(O)CC[C@H]2[C@@H]3CCc4cc(OC)ccc4[C@H]3CC[C@@]21C [Mestranol] | 0.9
